Tests used:
[1] = Reactive oxygen species (ROS) assay under simulated sunlight; format: physicochemical; conditions: for Reactive Oxygen Species Generation Singlet oxygen / Reactive Oxygen Species Generation Superoxide: 200 µM, simulated sunlight 1 h, mean ± standard deviation (n = 3)
Method: The ROS assay was designed to detect both singlet oxygen and superoxide generated from photo-irradiated chemicals. Briefly, singlet oxygen was measured in aqueous solution by spectrophotometrically monitoring the bleaching of p-nitrosodimethylaniline at 440 nm using imidazole as a selective acceptor of singlet oxygen. Samples containing the tested chemical (20 or 200 μM), p-nitrosodimethylaniline (50 μM), and imidazole (50 μM) in 20 mM sodium phosphate buffer (pH 7.4) were mixed in a tube. Each sample in 200 μL was transferred into a well of a plastic 96-well plate (clear, untreated, and flat-bottomed) and checked for precipitation under a microscope with an objective lens (×100) before light exposure. The plate was subjected to a measurement of absorbance at 440 nm using a microplate spectrophotometer. The plate was fixed in the quartz reaction container with a quartz cover and then irradiated with the simulated sunlight (ultraviolet A/B and visible light, 250 W/m^2, Suntest CPS plus, Atlas Material Testing Technology, Mount Prospect, IL, USA) for 1 h. After agitation on a plate shaker, the UV absorbance at 440 nm was measured. For the determination of superoxide, samples containing the test chemical (20 or 200 μM) and nitroblue tetrazolium (50 μM) in 20 mM sodium phosphate buffer were irradiated with the simulated sunlight for 1 h and the reduction in nitroblue tetrazolium was measured by the increase in absorbance at 560 nm in the same manner as the singlet oxygen determination. Experiments were performed in triplicate wells in three independent runs. As the final concentration, 200 μM test chemical solutions should be subjected to the ROS assay. However, when precipitation could be observed at 200 μM under the optical microscope, additional experiments should be performed under appropriate dilution (20, 50, or 100 μM).

[2] = PAMPA (parallel artificial membrane permeability assay); format: in vitro ADME
Method: In order to determine the passive membrane diffusion rates, the Corning Gentest Pre-coated PAMPA Plate System was used in the PAMPA test. […] The acceptor plate was then placed on top of the donor plate and incubated at 37 °C without agitation for 4 h. At the end of the incubation, the plates were separated and the solutions from each well of both the acceptor plate and the donor plate were transferred to 96-well plates and mixed with acetonitrile. The final concentrations of compound in both the donor wells and acceptor wells, as well as the concentrations of the initial donor solutions, were analyzed by LC-MS/MS. The permeability of the compound was calculated according to the previous report.

[3] = parameters: method as in PMID 18185985; conditions: cited from earlier work

Row | Reactive Oxygen Species Generation Singlet oxygen [1] | Reactive Oxygen Species Generation Superoxide [1] | SMILES | other results
1 | – | – | CCN1C=C\C(=C/C=C(\C=C/c2cc[n+](CC)c3ccccc23)c2cc[n+](CC)c3ccccc23)c2ccccc21.[I-].[I-] [NK-4, 1-ethyl-4-[(1Z,3E,5E)-1-(1-ethylquinolin-1-ium-4-yl)-5-(1-ethylquinolin-4-ylidene)penta-1,3-dien-3-yl]quinolin-1-ium;iodide] | phototoxicity conclusion from ROS assay [1]: less phototoxic
2 | 602 ± 7 ΔA440 × 1000 | 348 ± 12 ΔA560 × 1000 | C=C[C@H]1C[N@@]2CC[C@H]1C[C@H]2[C@H](O)c1ccnc2ccc(OC)cc12 [Quinine] | –
3 | Not detected | Not detected | COc1cc(O)c(C(=O)c2ccccc2)cc1S(=O)(=O)O [Sulisobenzone] | –
4 | – | – | Cc1cc(=O)n(-c2ccccc2)n1C [antipyrine] | Papp at 4 h, 100 μM ([2]; PAMPA, read-out: PAMPA permeability of reference compound): 11 ×10⁻⁶ cm/s
5 | – | – | COCCc1ccc(OCC(O)CNC(C)C)cc1 (centres unmarked) [metoprolol] | PAMPA permeability of reference compound ([2]; reference compound at 500 μM): 1.5 ×10⁻⁶ cm/s
6 | – | – | O=C(O)c1cc(/N=N/c2ccc(S(=O)(=O)Nc3ccccn3)cc2)ccc1O [sulfasarazine] | gastrointestinal absorption in human [3]: 13%
